From ChEMBL document CHEMBL1122505, “Pyrimidine and triazine 3-oxide sulfates: a new family of vasodilators” (1983) come the findings set out here.

What all share (type): functional, Artery
In assay [1] the test system is Rattus norvegicus. Put plainly: Average change in mean arterial blood pressure (mmHg) observed at 4 hr after oral administration at a dose of 5 mg/kg in female Sprague-Dawley rats.
In assay [2] the test system is Rattus norvegicus. Put plainly: Average change in mean arterial blood pressure (mmHg) observed at 4 hr after oral administration at a dose of 14 mg/kg in female Sprague-Dawley rats.
Assay [3] deals with Rattus norvegicus. Put plainly: Average change in mean arterial blood pressure (mmHg) observed at 4 hr after oral administration at a dose of 0.15 mg/kg in female Sprague-Dawley rats.
Assay [4] relates to Rattus norvegicus. Put plainly: Average change in mean arterial blood pressure (mmHg) observed at 4 hr after oral administration at a dose of 50 mg/kg in female Sprague-Dawley rats.

Where a name gives a salt, the structure may show the parent alone.

In the assay with Rattus norvegicus [1], `C=CCN(CC=C)c1nc(N)[n+](OS(=O)(=O)[O-])c(N)n1` came in with a Delta blood pressure of -21 mmHg.

In the assay on Rattus norvegicus [2], `Cc1cc(N2CCOCC2)nc(N)[n+]1OS(=O)(=O)[O-]` yielded a Delta blood pressure of -37 mmHg.

In the assay on Rattus norvegicus [3], `Nc1cc(N2CCCCC2)nc(N)[n+]1OS(=O)(=O)[O-]` [MINOXIDIL SULFATE] came in with a Delta blood pressure of -16 mmHg.

As to `Cc1cc(N2CCCC2)nc(N)[n+]1OS(=O)(=O)[O-]`, the Delta blood pressure with Rattus norvegicus [4] was -39 mmHg.

In the assay with Rattus norvegicus [4], `CNc1cc(N)[n+](OS(=O)(=O)[O-])c(N)n1` returned a Delta blood pressure of -8 mmHg.
